{"source": "patent US6630179B1", "about": "(priority 1998, dated 2003)", "key": {"[1]": {"system": "HIV-1 IIIB laboratory strain", "test": "HIV-1 IIIB viral growth, different research group, compared to AZT", "format": "cell-based", "conditions": "HIV-1 IIIB (first-named isolate)"}, "HIV-1 D isolate": {"system": "HIV-1 D isolate", "test": "HIV-1 D isolate viral growth, different research group, compared to AZT", "format": "cell-based", "conditions": "HIV-1 D isolate (second-named isolate)"}, "Newcastle disease": {"system": "Newcastle disease", "format": "in vivo, Ross 308 broiler chickens", "conditions": "Baytril 10 mg/kg/day for 3 days in first week, one day at 21 days of age; day 28 and 42"}, "[2]": {"test": "Study 1511: Subchronic oral toxicity in rats (90 day study)", "conditions": "rat, in vivo"}, "[3]": {"conditions": "dog, in vivo", "protocol": "All animals were euthanased after the 90-day period and a comprehensive post mortem examination, as well as a histopathological evaluation of an extensive list of organs, was performed."}, "[4]": {"conditions": "rat, in vivo"}}, "note": "Read-outs that look alike come from different tables or passages of the source."}
{"molecule": "Cc1cn([C@H]2C[C@H](N=[N+]=[N-])[C@@H](CO)O2)c(=O)[nH]c1=O", "note": "[AZT]", "values": [{"measurement": "AZT concentration giving the same level of viral growth as oxihumate 25 μg/ml", "setting": "[1]", "result": 0.3, "unit": "µM"}, {"measurement": "AZT concentration giving the same level of viral growth as oxihumate 25 μg/ml", "setting": "HIV-1 D isolate", "result": 12.5, "unit": "µM"}]}
{"molecule": "CCN1CCN(c2cc3c(cc2F)c(=O)c(C(=O)O)cn3C2CC2)CC1", "note": "[Baytril]", "values": [{"measurement": "titers against Newcastle disease", "setting": "Newcastle disease", "result": "two to four fold increase"}]}
{"molecule": "Potassium oxihumate", "values": [{"measurement": "end body mass of male treated animals", "setting": "[2]", "result": "statistically significant decrease"}, {"measurement": "circulating lymphocytes", "setting": "[2]; po", "result": "decline"}, {"measurement": "clinical signs", "setting": "[2]; po", "result": "No abnormal clinical signs were observed"}, {"measurement": "pathology and organ masses compared to the control animals", "setting": "[2]; po", "result": "no notable differences"}, {"measurement": "serum globulins", "setting": "[2]; po", "result": "consistent increase"}, {"measurement": "serum inorganic phosphate", "setting": "[2]; po", "result": "decrease"}, {"measurement": "size and haemoglobinization of the red blood cells", "setting": "[2]; po", "result": "drug-related increase"}, {"measurement": "blood chemistry and body masses", "setting": "[2]; po, 1000 mg/kg/day", "result": "Slight alterations in blood chemistry and slight decreases in body masses"}, {"measurement": "overall toxicity assessment", "setting": "[3]", "result": "low toxicity"}, {"measurement": "post mortem and histopathological evaluation", "setting": "[3]", "result": "did not induce any measurable pathology at the macroscopic and microscopic level"}, {"measurement": "clinical signs of toxicity", "setting": "[3]; 1200 mg/kg/day", "result": "did not induce marked clinical signs of toxicity"}, {"measurement": "clinical pathological parameters", "setting": "[3]; po", "result": "some, but usually small, effects"}, {"measurement": "blood chemistry and body masses", "setting": "[3]; po, 1200 mg/kg/day", "result": "Slight alterations in blood chemistry and slight decrease in body masses"}, {"measurement": "acid-base status", "setting": "[4]", "result": "very low grade acid-base disturbance"}, {"measurement": "chemical pathology parameters", "setting": "[4]", "result": "altered some of the chemical pathology parameters"}, {"measurement": "overall toxicity assessment", "setting": "[4]; 1000 mg/kg/day", "result": "does not appear to have any serious deleterious effect"}, {"measurement": "pathology, body masses and organ masses compared to the control animals", "setting": "[4]; 1000 mg/kg/day", "result": "no differences"}]}
